The results in this text go back to patent publication US5114960A, “Substituted isoxazole derivatives” (Hoffmann-La Roche Inc., priority 1989, dated 1992).

The test system of the experiment is IL-1-dependent PGE^2. Nature of the experiment: IL-1-dependent PGE2 inhibition test in human rheumatoid synovial cell lines. It is filed as cell-based. To be noted: recombinant human IL-1 alpha 0.1 ng/ml, 7 hours, 37° C., read-out: IC50 (concentration reducing PGE2 release to 50% of IL-1-stimulated control values). As to the method: IL-1-dependent PGE ^2 inhibition test:
Human rheumatoid synovial cell lines, prepared by the enzymatic dissociation of fresh rheumatoid tissue, were maintained by culture in Dulbecco's modified Eagle medium containing 25 mM HEPES, 10% foetal calf serum, 100 units of penicillin per ml and 100 μg of streptomycin per ml (culture medium). Standard incubation conditions were 37° C. in a water-saturated atmosphere containing 95% air and 5% CO2.
Semi-confluent cultures at the third to eighteenth passage were detached by trypsin treatment and resuspended in culture medium at […]. The cell suspension was distributed to 200 μl aliquots into the wells of a 96-well microtitration plate and incubated for 18 hours at 37° C. to allow adhesion of the cells.
Test substances were dissolved in equimolar sodium hydroxide solution and double-dilution series were prepared in sterile water. If the test substances is a compound of formula I in which one of R^1 and R^2 is alkoxycarbonyl and the other hydrogen, it is treated with hog liver esterase prior to carrying out the test. The medium was aspirated from the microcultures of the synovial cells. 170 μl of culture medium were added and the cultures were treated with 20 μl of test substances and then 10 μl of recombinant human IL-1 alpha culture medium to give a final concentration of 0.1 ng/ml. All treatments were carried out in quadruplet. After incubation for 7 hours, samples of the culture media were removed and stored at -20° C. prior to assay for PGE2. The PGE2 content was determined using a [^I 125]R1A kit obtained from NEN Products.
PGE2 concentration detected in unstimulated controls were subtracted from values determined in all stimulated cultures and results were transformed to percent of IL-1-stimulated control PGE2 values. IC50 values were determined by interpolation as those concentrations reducing PGE2 release to 50% of IL-1-stimulated control values.
Consider `O=C(O)[C@H]1[C@H]2CCc3c(-c4ccc(Cl)cc4)noc3[C@H]21` (relative stereo) [Compound C, endo-3-(4-Chlorophenyl)-5,5a,6,6a-tetrahydro-4H-cyclopropa[g]-1,2-benzisoxazole-6-carboxylic acid], for which the IC50 worked out at 500 nM.
Under `CO[C@@H]1CC[C@@H](C(=O)O)Cc2onc(-c3ccc(Cl)cc3)c21` (relative stereo) [Compound D, trans-3-(4-Chlorophenyl)-5,6,7,8-tetrahydro-4-methoxy-4H-cyclohept[d]isoxazole-7-carboxylic acid] stands 8000 nM; under `C[C@H]1CC[C@H](C(=O)O)Cc2onc(-c3ccc(Cl)cc3)c21` (relative stereo) [Compound E, trans-3-(4-Chlorophenyl)-5,6,7,8-tetrahydro-4-methyl-4H-cyclohept[d]isoaxazole-7-carboxylic acid], 40 nM; under `O=C(O)C1CCc2onc(-c3ccc(Cl)cc3)c2CC1` (single isomer, unassigned; (+)) [Compound A, (+)-3-(4-Chlorophenyl)-5,6,7,8-tetrahydro-4H-cyclohept[d]isoxazole-6-carboxylic acid], 2000 nM.
Under `O=C(O)C1CCCc2c(-c3ccc(Cl)cc3)noc2C1` (stereo not drawn) [Compound B, 3-(4-Chlorophenyl)-5,6,7,8-tetrahydro-4H-cyclohept[d]isoxazole-7-carboxylic acid] stands 15000 nM; under `CCC1(C(=O)O)C2CCc3c(-c4ccc(Cl)cc4)noc3C21` (stereo not drawn) [Compound F, endo-3-(4-Chlorophenyl)-6-ethyl-5,5a,6,6a-tetrahydro-4H-cyclopropa[g]-1,2-benzisoxazole-6-carboxylic acid], 700 nM.
